Results on 10 compounds are retold here after patent US20040180322A1, “Regional intestinal permeability model” (priority 2000, published 2004).

Where a SMILES comes first, the peptide text is derived from it. [ ]: non-standard residue; d: D form. Sar = CNCC(=O)O

Data set [1] can be described thus: Caco-2 transepithelial transport at different apical pH, buffers and CO2 incubation (Experiment Two). Type of data set: in vitro ADME. To be noted: human. As to the method:
(§1) Methods. In vitro permeability of various transport marker compounds was investigated using different apical pH's (pH 7.4 and pH 6.5), different buffers (Ringers, Mes, and Hepes), and different incubation (with or without CO2) conditions. Caco-2 transepithelial transport studies were performed using a standardized 24-well transwell format (20-24 day culture/passage 30-40). The apical (A, 0.3 mL volume) and basolateral (B, 1.2 mL volume) reservoirs were filled with Ringer's buffer (pH 7.4, 290 mOsm/kg), containing 25 mM glucose. A→B and B→A permeability was studied at 37° C., 50 opm, 95% humidity, and 5% CO2 using a 100 μM donor concentration with 1% DMSO. Monolayer integrity was evaluated by transepithelial electrical resistance (TEER) measurements.

Data set [2] relates to Caco-2. As to the kind of experiment: Caco-2 transepithelial transport with apical FaSSIF versus Mes (Experiment Three). In kind it is in vitro ADME. To be noted: for increase of A→B permeability with apical FaSSIF / increase of B→A permeability with apical FaSSIF: Caco-2, apical FaSSIF pH 6.5 compared with Mes pH 6.5. As to the method:
Methods. […] Caco-2 transepithelial transport studies were performed using a standardized 24-well transwell format (20-24 day culture/passage 30-40). The transport experiments were performed using 0.3 mL apical solution either Ringers (pH 7.4), Mes (pH 6.5), or FaSSIF (pH 6.5, calcium free) and 1.2 mL basolateral solution (Ringer's buffer: pH 7.4, 290 mOsm/kg, 25 mM glucose). […] and B→A permeability was studied at 37° C., 50 opm, 95% humidity, and 5% CO2 using a 100 μM donor concentration with 1% DMSO. Monolayer integrity was evaluated by TEER measurements. Rabbit regional intestinal permeability studies were conducted using the Ussing side-by-side diffusion chamber, with volumes of 1.5 mL on each side. Intestinal segments (duodenum/jejunum/ileum/descending colon) were harvested from male New Zealand white rabbits (2.5-3.0 kg), stripped of the muscle layers and mounted in the chambers.

Data set [3] deals with Caco-2. Nature of the data set: Caco-2 transepithelial transport at different apical pH, buffers and CO2 incubation (Experiment Two). Type of data set: in vitro ADME. To be noted: for decrease of A to B Peff in the absence of CO2: Caco-2, pH 7.4 Ringers without CO2, pH shifted to 7.8-8.0; for decrease of A to B Effective Permeability (Peff) on change of apical pH from 7.4 to 6.5 / increase of A to B Effective Permeability (Peff) on change of apical pH from 7.4 to 6.5: Caco-2, apical pH 6.5 vs 7.4. As to the method: as §1

Data set [4] is described as follows: Caco-2 monolayer A to B permeability of marker compounds, standardized conditions (Experiment One). To be noted: human, Caco-2, pH 7.4.
Data set [5] has as its system Caco-2. As to the kind of experiment: Inter-laboratory Caco-2 permeability values of marker compounds collected from references. In kind it is in vitro ADME. To be noted: for variability of in vitro permeability values in inter-laboratory Caco-2: values from 10 references with various culture and transport conditions.
Data set [6] deals with Caco-2. To be noted: cited from earlier work; for range of in vitro permeability values in inter-laboratory Caco-2: values from 10 references with various culture and transport conditions.

For `COc1cc([C@@H]2c3cc4c(cc3[C@@H](O[C@@H]3O[C@@H]5CO[C@@H](C)O[C@H]5[C@H](O)[C@H]3O)[C@H]3COC(=O)[C@H]23)OCO4)cc(OC)c1O` [etoposide], the efflux ratio at 90 min, 100 μM in data set [1] (Caco-2, apical pH 6.5) was determined as 12; in data set [1] (Caco-2, apical pH 7.4), 8. In data set [2], the “increase of A→B permeability with apical FaSSIF” value (“increase of A→B permeability” for short) is listed as 2 fold.

On to `CC(C(=O)O)c1cccc(C(=O)c2ccccc2)c1` (stereo not drawn) [ketoprofen], for which the “decrease of A to B Peff in the absence of CO2” value in data set [3] is reported as 2 ×.

In the case of `CC(C)NCC(O)COc1cccc2ccccc12` (stereo not drawn) [propranolol], in data set [1] (Caco-2, apical pH 6.5), the efflux ratio at 90 min, 100 μM is more than 4. In data set [3], the “decrease of A to B Effective Permeability (Peff) on change of apical pH from 7.4 to 6.5” value is 3 ×. For the same compound, in data set [4], the Papp A→B at 90 min, 100 μM was 28.7 ×10⁻⁶ cm/s. Besides, the “variability of in vitro permeability values in inter-laboratory Caco-2” value in data set [5] is on record as 7 fold. The “range of in vitro permeability values in inter-laboratory Caco-2” value in data set [6] was 14.8-110 ×10^−6 cm/s.

With `CC[C@]1(O)C[C@@H]2CN(CCc3c([nH]c4ccccc34)[C@@](C(=O)OC)(c3cc4c(cc3OC)N(C)[C@H]3[C@@](O)(C(=O)OC)[C@H](OC(C)=O)[C@]5(CC)C=CCN6CC[C@]43[C@@H]65)C2)C1` [vinblastine], the efflux ratio at 90 min, 100 μM worked out at 32 in data set [1] (Caco-2, apical pH 6.5) and 4 in data set [1] (Caco-2, apical pH 7.4). Further, the “decrease of A to B Effective Permeability (Peff) on change of apical pH from 7.4 to 6.5” value in data set [3] was 5 ×.

As to `Nc1nc2c(ncn2COCCO)c(=O)[nH]1` [acyclovir], the “increase of A→B permeability” value in data set [2] stood at 3 fold.

Take Polyethylene Glycol [PEG 4000]: in data set [2], the “increase of A→B permeability” value is given as 2 fold and the “increase of B→A permeability with apical FaSSIF” value was 2 fold.

As for `CC(C)Cc1ccc(C(C)C(=O)O)cc1` (stereo not drawn) [ibuprofen], in data set [3], the “increase of A to B Effective Permeability (Peff) on change of apical pH from 7.4 to 6.5” value is reported as 3 ×.

For the compound `NC(=O)c1ncn([C@@H]2O[C@H](CO)[C@@H](O)[C@H]2O)n1` [ribavirin], the “increase of A→B permeability” value in data set [2] is 5 fold.

As for `OC[C@@H](O)[C@@H](O)[C@H](O)[C@H](O)CO` [mannitol], in data set [2], the “increase of A→B permeability” value stood at 3 fold and the “increase of B→A permeability with apical FaSSIF” value was 11 fold. In data set [4], this compound yielded a Papp A→B at 90 min, 100 μM of 0.461 ×10⁻⁶ cm/s. The “variability of in vitro Apparent Permeability (Papp) values from published references” value in data set [5] (published references) is recorded as 345 fold. Further, the “variability of in vitro permeability values in inter-laboratory Caco-2” value in data set [5] was 9 fold. Further, the “range of in vitro Apparent Permeability (Papp) values from published references” value in data set [6] (published references) was 0.019-6.55 ×10^−6 cm/s. Further, the “range of in vitro permeability values in inter-laboratory Caco-2” value in data set [6] is reported as 0.38-3.23 ×10^−6 cm/s.

On to `CN(CC(=O)O)C(=O)CN` [glycylsarcosine] (H-Gly-[Sar]-OH), for which, in data set [3], the “increase of A to B Effective Permeability (Peff) on change of apical pH from 7.4 to 6.5” value is on record as 6 × and the “decrease of A to B Peff in the absence of CO2” value came to 2 ×. In addition, in data set [2] (Caco-2, FaSSIF in apical compartment), the “decrease of A→B permeability with apical FaSSIF” value is given as 2 fold.
